Test results: patent publication US12590062B2, “PD-1/PD-L1 inhibitors” (Gilead Sciences, Inc., priority 2017, dated 2026)
pEC50, pIC50: −log10 of the molar value.

Assays:
PD-1/PD-L1 = PD-1/PD-L1 (Homo sapiens, UniProt Q9NZQ7); test: PD-1/PD-L1 biochemical protein-protein interaction assay (ALPHA); format: binding; conditions: 0.3 nM His tagged PD-L1, 2.5 nM biotinylated Fc-PD-1, 60 minutes at 25° C., read-out: IC50 PD-L1-PD-1 Alpha IC50-mono PD-L1-fcP-D1
How it was run: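 Final concentrations 0.3 nM His-tagged PD-L1 and 2.5 nM biotinylated Fc-PD-1 (extracellular domains) were reacted with compound for 60 min at 25° C in pH 7.4 Hepes/NaCl/EDTA/Tween/BSA buffer. Binding was then detected by ALPHA beads, and IC50 values were taken from four-parameter curve fitting.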

PD-1/PD-L1 interaction = target: T1, PD-1/PD-L1 interaction (Homo sapiens, UniProt Q9NZQ7); test: PD-1/PD-L1 NFAT reporter co-culture assay; format: cell-based; conditions: Jurkat PD-1 NFAT-luciferase cells co-cultured with aAPC-PD-L1 CHO cells, 6 hrs at 37° C.; read-out: EC50 NFAT Luciferase
T1 construct: expressed in transfected cells; host or cells: CHO cells (aAPC-PD-L1) co-cultured with Jurkat cells overexpressing PD-1 and an NFAT-luciferase reporter
T1 sequence (Q9NZQ7 19-290): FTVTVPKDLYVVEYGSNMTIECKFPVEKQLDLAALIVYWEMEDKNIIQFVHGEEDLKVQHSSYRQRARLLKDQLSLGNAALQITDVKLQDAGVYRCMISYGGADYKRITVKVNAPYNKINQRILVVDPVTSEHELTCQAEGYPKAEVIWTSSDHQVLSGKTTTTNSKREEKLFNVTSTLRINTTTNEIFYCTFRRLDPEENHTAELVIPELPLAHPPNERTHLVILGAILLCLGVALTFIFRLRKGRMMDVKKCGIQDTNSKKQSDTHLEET
How it was run: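 Restoration of TCR-driven NFAT luciferase signal: 6 h, 37 °C co-culture of PD-1 Jurkat reporter cells (pre-mixed with compound) on overnight-seeded PD-L1/anti-CD3 CHO monolayer. ONE-Glo luminescence; dose-response fitted to four-parameter equation for EC50.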

PD-L1 = target: T2, PD-L1 (Homo sapiens, UniProt Q9NZQ7); test: PD-L1/PD-L1 dimerization biochemical protein-protein interaction assay (ALPHA); format: binding; conditions: compound-induced PD-L1 dimerization, head prints '1 nM' (0.5 nM His-tagged PD-L1 and 0.5 nM FLAG-tagged PD-L1), read-out: AC50 PDL1 Dimer Alpha 1 nM
T2 construct: determine if they can specifically dimerize the extracellular domains of PD-L1
T2 sequence (Q9NZQ7 19-238 limits assumed): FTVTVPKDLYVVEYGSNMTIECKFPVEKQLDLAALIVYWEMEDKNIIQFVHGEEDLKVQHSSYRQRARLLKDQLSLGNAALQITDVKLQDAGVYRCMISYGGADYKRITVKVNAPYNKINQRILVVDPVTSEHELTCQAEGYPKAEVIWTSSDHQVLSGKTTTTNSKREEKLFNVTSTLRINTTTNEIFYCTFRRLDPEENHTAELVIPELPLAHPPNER
T2 sequence (Q9NZQ7 19-238 limits assumed): as above
How it was run: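 ALPHA proximity assay of compound-induced dimerization of 0.5 nM His-tagged and 0.5 nM FLAG-tagged PD-L1 extracellular domains in Hepes pH 7.4 buffer, 2 h at 25 °C. Anti-His acceptor then anti-FLAG donor beads, 60 min each; AC50 from four-parameter fit.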

Chain of PD-1/PD-L1 (Q9NZQ7 19-238 limits assumed): as above

Row | SMILES | pIC50 (PD-1/PD-L1) | pEC50 (PD-1/PD-L1 interaction) | AC50 (PD-L1)
1 | COc1nc(O[C@H]2CCc3c(-c4cccc(-c5ccc(CNC[C@@H]6CCC(=O)N6)cc5)c4Cl)cccc32)c(Cl)cc1CN1CCCC[C@H]1C(=O)O [Example 715] | 10.19 | 7.46 | 7.89 nM
2 | COc1nc(O[C@H]2CCc3c(-c4cccc(-c5ccc(CNC[C@@H]6CCC(=O)N6)cc5)c4Cl)cccc32)c(Cl)cc1CN[C@H]1CCC[C@H]1O [Example 716] | 9.39 | 6.46 | 15.1 nM
3 | COc1nc(O[C@H]2CCc3c(-c4cccc(-c5ccc(CNC[C@@H]6CCC(=O)N6)cc5)c4Cl)cccc32)c(Cl)cc1CN[C@@H]1CCC[C@@H]1O [Example 717] | 9.24 | 6.32 | 16.2 nM
4 | COc1nc(O[C@H]2CCc3c(-c4cccc(-c5ccc(CNC[C@@H]6CCC(=O)N6)cc5)c4Cl)cccc32)c(Cl)cc1CN1CC[C@H](O)C1 [Example 718] | 9.62 | 6.15 | 70.4 nM
5 | COc1nc(O[C@H]2CCc3c(-c4cccc(-c5ccc(CNC[C@@H]6CCC(=O)N6)cc5)c4Cl)cccc32)c(Cl)cc1CN1CCC[C@H](C(=O)O)C1 [Example 719] | 10.19 | 6.96 | 32.7 nM
6 | COc1nc(O[C@H]2CCc3c(-c4cccc(-c5ccc(CNC[C@@H]6CCC(=O)N6)cc5)c4Cl)cccc32)c(Cl)cc1CN1CC(O)C1 [Example 720] | 9.58 | 6.25 | 94.9 nM
7 | COc1nc(O[C@H]2CCc3c(-c4cccc(-c5ccc(CNC[C@@H]6CCC(=O)N6)cc5)c4Cl)cccc32)c(Cl)cc1CN1CC(C(=O)O)C1 [Example 721] | 10.19 | 7.85 | 19 nM
8 | COc1nc(O[C@H]2CCc3c(-c4cccc(-c5ccc(CNC[C@@H]6CCC(=O)N6)cc5)c4Cl)cccc32)c(Cl)cc1CN1CCC[C@@H]1C(=O)O [Example 724] | 10.19 | 6.92 | 21.2 nM
9 | COc1nc(O[C@H]2CCc3c(-c4cccc(-c5ccc(CNC[C@@H]6CCC(=O)N6)cc5)c4Cl)cccc32)c(Cl)cc1CN1CCC[C@H]1C(=O)O [Example 725] | 10.19 | 7.06 | 14.3 nM
10 | COc1nc(-c2cccc(-c3cccc4c3CC[C@@H]4Oc3nc(OC)c(CNC[C@@H](O)CC(=O)O)cc3Cl)c2Cl)ccc1CNC[C@@H]1CCC(=O)N1 [Example 728] | 10.19 | 7.60 | 15 nM
11 | COc1nc(O[C@H]2CCc3c(-c4cccc(-c5ccc(CNC[C@@H]6CCC(=O)N6)cc5)c4Cl)cccc32)c(Cl)cc1CNC[C@@H]1CCC(=O)N1 [Example 730] | 9.13 | 7.00 | 40.7 nM
12 | COc1nc(O[C@H]2CCc3c(-c4cccc(-c5ccc(CNC[C@@H]6CCC(=O)N6)cc5)c4Cl)cccc32)c(Cl)cc1CN[C@@](C)(CO)C(=O)O [Example 731] | 10.19 | 7.59 | 16 nM
13 | COc1nc(O[C@H]2CCc3c(-c4cccc(-c5ccc(CNC[C@@H]6CCC(=O)N6)cc5)c4Cl)cccc32)c(Cl)cc1CNC[C@@H](O)CC(=O)O [Example 732] | 10.13 | 7.85 | 2.69 nM
14 | COc1nc(-c2cccc(-c3cccc4c3CC[C@@H]4Oc3nc(OC)c(CNC[C@@H]4CCC(=O)N4)cc3Cl)c2Cl)ccc1CNC[C@@H]1CCC(=O)N1 [Example 734] | 9.33 | 7.44 | 46 nM
15 | COc1nc(-c2cccc(-c3cccc4c3CC[C@@H]4Oc3nc(OC)c(CNC[C@@H]4CCC(=O)N4)cc3Br)c2Cl)ccc1CNC[C@@H]1CCC(=O)N1 [Example 736] | 9.82 | 7.66 | 18.4 nM
16 | C[C@@](CO)(NCc1cc(Br)c(O[C@H]2CCc3c(-c4cccc(-c5ccc(C6=NCCN6)cc5)c4Cl)cccc32)nc1OCc1cncc(C#N)c1)C(=O)O [Example 737] | 10.19 | 7.10 | 8.23 nM
17 | C[C@@](CO)(NCc1cc(Cl)c(O[C@H]2CCc3c(-c4cccc(-c5ccc(C6=NCCN6)cc5)c4Cl)cccc32)nc1OCc1cncc(C#N)c1)C(=O)O [Example 738] | 10.19 | 7.14 | 8.06 nM
18 | C[C@@](CO)(NCc1ccc(O[C@H]2CCc3c(-c4cccc(-c5ccc(C6=NCCN6)cc5)c4Cl)cccc32)nc1OCc1cncc(C#N)c1)C(=O)O [Example 740] | 10.19 | 6.54 | 53.6 nM
19 | C[C@@](CO)(NCc1cc(Br)c(O[C@H]2CCc3c(-c4cccc(-c5ccc(CNC[C@@H]6CCC(=O)N6)cc5)c4Cl)cccc32)nc1OCc1cncc(C#N)c1)C(=O)O [Example 741] | 10.19 | 7.92 | 3.1 nM
20 | C[C@@](CO)(NCc1ccc(O[C@H]2CCc3c(-c4cccc(-c5ccc(CNC[C@@H]6CCC(=O)N6)cc5)c4Cl)cccc32)nc1OCc1cncc(C#N)c1)C(=O)O [Example 742] | 10.19 | 7.49 | 42 nM
21 | COC(=O)[C@@](C)(CO)NCc1cc(Br)c(O[C@H]2CCc3c(-c4cccc(-c5ccc(CNC[C@@H]6CCC(=O)N6)c(OC)n5)c4Cl)cccc32)nc1OCc1cncc(C#N)c1 [Example 743] | 9.51 | 7.30 | 82.2 nM
22 | COc1nc(-c2cccc(-c3cccc4c3CC[C@@H]4Oc3nc(OCc4cncc(C#N)c4)c(CN[C@@](C)(CO)C(=O)O)cc3Br)c2Cl)ccc1C1=NCCN1 [Example 744] | 10.19 | 7.36 | 9.53 nM
23 | COc1nc(-c2cccc(-c3cccc4c3CC[C@@H]4Oc3nc(OCc4cncc(C#N)c4)c(CN[C@@](C)(CO)C(=O)O)cc3Cl)c2Cl)ccc1C1=NCCN1 [Example 745] | 10.19 | 6.95 | 19.2 nM
24 | COc1nc(-c2cccc(-c3cccc4c3CC[C@@H]4Oc3ccc(CN[C@@](C)(CO)C(=O)O)c(OCc4cncc(C#N)c4)n3)c2Cl)ccc1C1=NCCN1 [Example 746] | 10.19 | 6.84 | 104 nM

Next, values leading:

Row | pIC50 (PD-1/PD-L1) | pEC50 (PD-1/PD-L1 interaction) | AC50 (PD-L1) | SMILES
25 | 10.19 | 7.66 | 54.6 nM | COc1nc(-c2cccc(-c3cccc4c3CC[C@@H]4Oc3nc(OC)c(CN4CC[C@H](C(=O)O)C4)cc3Cl)c2Cl)ccc1CN1CC(O)C1 [Example 710]
26 | 10.16 | 7.16 | 103 nM | COc1nc(O[C@H]2CCc3c(-c4cccc(-c5cnc(CNC[C@H]6C[C@H](O)C6)c(OC)n5)c4Cl)cccc32)c(Cl)cc1CN1CC[C@H](C(=O)O)C1 [Example 711]
27 | 10.19 | 7.92 | 33 nM | COc1nc(-c2cccc(-c3cccc4c3CC[C@@H]4Oc3nc(OC)c(CN4CC[C@H](C(=O)O)C4)cc3Cl)c2Cl)ccc1CNC[C@H]1C[C@H](O)C1 [Example 712]
28 | 10.19 | 7.60 | 69.4 nM | COc1nc(-c2cccc(-c3cccc4c3CC[C@@H]4Oc3nc(OC)c(CN4CC(C(=O)O)C4)cc3Cl)c2Cl)ccc1CN1CC2(CCC(=O)N2)C1 [Example 713]
29 | 10.19 | 7.59 | 66.3 nM | COc1nc(-c2cccc(-c3cccc4c3CC[C@@H]4Oc3nc(OC)c(CN4CC[C@H](C(=O)O)C4)cc3Cl)c2Cl)ccc1CN1CC2(CCC(=O)N2)C1 [Example 714]
30 | 10.19 | 7.33 | 16 nM | COc1nc(O[C@H]2CCc3c(-c4cccc(-c5ccc(CNC[C@@H]6CCC(=O)N6)cc5)c4Cl)cccc32)c(Cl)cc1CN1CC[C@@H](C(=O)O)C1 [Example 722]
31 | 10.19 | 7.39 | 35.1 nM | COc1nc(O[C@H]2CCc3c(-c4cccc(-c5ccc(CNC[C@@H]6CCC(=O)N6)cc5)c4Cl)cccc32)c(Cl)cc1CN1CC[C@H](C(=O)O)C1 [Example 723]
32 | 9.90 | 7.12 | 81.9 nM | COc1nc(-c2cccc(-c3cccc4c3CC[C@@H]4Oc3nc(OC)c(CN4CC5(CCC(=O)N5)C4)cc3Cl)c2Cl)ccc1CNC[C@@H]1CCC(=O)N1 [Example 726]
33 | 10.19 | 7.57 | 15.8 nM | COc1nc(-c2cccc(-c3cccc4c3CC[C@@H]4Oc3nc(OC)c(CN[C@@](C)(CO)C(=O)O)cc3Cl)c2Cl)ccc1CNC[C@@H]1CCC(=O)N1 [Example 727]
34 | 9.03 | 6.19 | 49 nM | COc1nc(O[C@H]2CCc3c(-c4cccc(-c5ccc(CNC[C@@H]6CCC(=O)N6)cc5)c4Cl)cccc32)c(Cl)cc1CN1CC2(CCC(=O)N2)C1 [Example 729]
35 | 9.65 | 6.92 | 129 nM | COc1nc(-c2cccc(-c3cccc4c3CC[C@@H]4Oc3nc(OC)c(CN4CC5(CCC(=O)N5)C4)cc3Cl)c2Cl)ccc1CN1CC2(CCC(=O)N2)C1 [Example 733]
36 | 9.46 | 7.02 | 104 nM | COc1nc(-c2cccc(-c3cccc4c3CC[C@@H]4Oc3nc(OC)c(CN4CC5(CCC(=O)N5)C4)cc3Br)c2Cl)ccc1CN1CC2(CCC(=O)N2)C1 [Example 735]
